Read-outs that look alike come from different tables or passages of the source.
Legend:
[1] = test system: premalignant lesions in mouse mammary gland organ culture; assay: Mammary gland organ culture model; format: cell-based; settings: qualitative activity profile; also: key: −: Not active; +: Slightly active; ++: Moderately active; +++: Strongly active; ++++: Highly active
Excerpt: Test compounds identified by the above methods can be tested for antineoplastic activity by their ability to inhibit the incidence of pre-neoplastic lesions in a mammary gland organ culture system. This mouse mammary gland organ culture technique has been successfully used by other investigators to study the effects of known antineoplastic agents such as certain NSAIDs, retinoids, tamoxifen, selenium, and certain natural products, and is useful for validation of the screening method of the present invention.
For example, female BALB/c mice can be treated with a combination of estradiol and progesterone daily, in order to prime the glands to be responsive to hormones in vitro. The animals are sacrificed, and thoracic mammary glands are excised aseptically and incubated for ten days in growth media supplemented with insulin, prolactin, hydrocortisone, and aldosterone. DMBA (7,12-dimethylbenz(a)anthracene) is added to medium to induce the formation of premalignant lesions. Fully developed glands are then deprived of prolactin, hydrocortisone, and aldosterone, resulting in the regression of the glands but not the pre-malignant lesions.
The test compound is dissolved in DMSO and added to the culture media for the duration of the culture period. At the end of the culture period, the glands are fixed in 10% formalin, stained with alum carmine, and mounted on glass slides. The incidence of forming mammary lesions is the ratio of the glands with mammary lesions to […]. The incidence of mammary lesions in test compound treated glands is compared with that of the untreated glands.
The extent of the area occupied by the mammary lesions can be quantitated by projecting an image of the gland onto a digitation pad. The area covered by the gland is traced on the pad and considered as 100% of the area. The space covered by each of the non-regressed structures is also outlined on the digitization pad and quantitated by the computer.
Mammary gland organ culture experiment were performed as previously described (Mehta and Moon, Cancer Research, 46: 5832-5835, 1986). […] The data support the hypothesis that cyclooxygenase inhibition is not necessary for the anti-neoplastic properties of desired compounds.

[2] = test system: SW-480 colon adenocarcinoma cells
[3] = test system: HT-29 human colon carcinoma cell line; assay: Growth inhibition, SRB assay, HT-29; format: cell-based; parameters: Growth Inhibition: key to the marks not given beside the values
[4] = target: T1, purified cyclooxygenase (Type 1, COX-I) from ram seminal vesicles (Ovis aries, UniProt P05979); assay: COX inhibition assay, purified cyclooxygenase; format: biochemical; settings: for COX Inhibition: qualitative activity profile; for inhibition at 100 µM: read-out: Cyclooxygenase inhibitory activity, % Inhibition at 100 μM
T1 construct: using purified cyclooxygenase from ram seminal vesicles as described previously; tissue Cayman Chemical, Ann Arbor, Mich; (named in the general protocol only); host or cells: ram seminal vesicles
T1 sequence (P05979 25-600): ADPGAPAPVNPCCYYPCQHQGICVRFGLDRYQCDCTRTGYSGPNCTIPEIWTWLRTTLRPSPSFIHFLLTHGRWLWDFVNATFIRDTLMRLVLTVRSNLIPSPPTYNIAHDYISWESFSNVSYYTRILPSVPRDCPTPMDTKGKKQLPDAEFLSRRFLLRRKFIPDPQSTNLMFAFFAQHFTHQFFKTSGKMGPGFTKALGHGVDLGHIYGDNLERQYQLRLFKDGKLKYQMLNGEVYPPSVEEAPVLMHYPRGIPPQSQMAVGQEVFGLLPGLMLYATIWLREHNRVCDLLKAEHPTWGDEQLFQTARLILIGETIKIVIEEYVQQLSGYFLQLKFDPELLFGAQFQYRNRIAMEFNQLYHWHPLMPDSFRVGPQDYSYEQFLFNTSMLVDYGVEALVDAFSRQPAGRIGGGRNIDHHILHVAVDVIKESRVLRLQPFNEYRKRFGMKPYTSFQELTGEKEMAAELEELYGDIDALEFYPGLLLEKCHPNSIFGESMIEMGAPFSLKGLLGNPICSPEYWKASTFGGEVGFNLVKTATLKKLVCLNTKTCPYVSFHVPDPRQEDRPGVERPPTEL

[5] = test system: cGMP PDE purified from human colon HT-29 cultured tumor cells; assay: cGMP PDE inhibition assay; format: biochemical; settings: for PDE Inhibition: qualitative activity profile; for IC50: read-out: IC50 for inhibition of cGMP PDE, HT-29 cell enzyme
[6] = test system: HT-29 colon adenocarcinoma cells; assay: Apoptosis by DNA fragmentation assay in HT-29; format: cell-based, human; as to Apoptosis: key: −: Not active; +: Slightly active; ++: Moderately active; +++: Strongly active; ++++: Highly active
PC-3 = assay: Growth inhibition, neutral red assay, PC-3; format: cell-based, human; settings: Homo sapiens, PC-3; neutral red assay (Schmid et al.); read-out: IC50 (μM), Human Prostate Carcinoma PC3
Protocol: (§1) Compound I's activity is not confined to activity against colon cancer cell lines or animal models of colon cancer. It has a broad range of anti-neoplastic effects in various neoplastic cell lines. Various types of human cancer cell lines were propagated under sterile conditions in RPMI 1640 medium with 10% fetal bovine serum, 2 mM L-glutamine and sodium bicarbonate. To determine growth inhibitory effects of Compound I, cells were seeded in 96-well plates at a density of 1000 cells per well. Twenty-four hours after plating, the cells were dosed with various concentrations of the free base of Compound I solubilized in DMSO (final concentration 0.1%). The effect of the drug on tumor cell growth was determined using the neutral red cytotoxicity assay following five days of continuous treatment. Neutral red is a dye that is selectively taken up by viable cells by an ATP-dependent transport mechanism.

[7] = target: T2, cGMP binding sites of the GST-cGB-PDE5 protein (Homo sapiens, UniProt O76074); assay: cGMP binding assay with GST-cGB-PDE5 fusion protein; settings: 3H-cGMP 2 μM
T2 construct: made in house; host or cells: E. coli BL21 (DE3)

Colo 205 = assay: Growth inhibition, neutral red assay, Colo 205; format: cell-based, human; settings: Homo sapiens, COLO 205; neutral red assay (Schmid et al.)
Protocol: as §1

[8] = test system: PDE4 purified from human colon HT-29 cultured tumor cells; assay: PDE4 inhibition assay; format: biochemical; settings: HT-29 cell enzyme
[9] = target: novel cGMP-specific PDE peak B from SW480 cells (Homo sapiens, UniProt O00408); assay: cGMP hydrolysis inhibition, novel PDE peak B (Section IA) from SW480; format: biochemical
Sequence of novel cGMP-specific PDE peak B from SW480 cells (O00408 2-941): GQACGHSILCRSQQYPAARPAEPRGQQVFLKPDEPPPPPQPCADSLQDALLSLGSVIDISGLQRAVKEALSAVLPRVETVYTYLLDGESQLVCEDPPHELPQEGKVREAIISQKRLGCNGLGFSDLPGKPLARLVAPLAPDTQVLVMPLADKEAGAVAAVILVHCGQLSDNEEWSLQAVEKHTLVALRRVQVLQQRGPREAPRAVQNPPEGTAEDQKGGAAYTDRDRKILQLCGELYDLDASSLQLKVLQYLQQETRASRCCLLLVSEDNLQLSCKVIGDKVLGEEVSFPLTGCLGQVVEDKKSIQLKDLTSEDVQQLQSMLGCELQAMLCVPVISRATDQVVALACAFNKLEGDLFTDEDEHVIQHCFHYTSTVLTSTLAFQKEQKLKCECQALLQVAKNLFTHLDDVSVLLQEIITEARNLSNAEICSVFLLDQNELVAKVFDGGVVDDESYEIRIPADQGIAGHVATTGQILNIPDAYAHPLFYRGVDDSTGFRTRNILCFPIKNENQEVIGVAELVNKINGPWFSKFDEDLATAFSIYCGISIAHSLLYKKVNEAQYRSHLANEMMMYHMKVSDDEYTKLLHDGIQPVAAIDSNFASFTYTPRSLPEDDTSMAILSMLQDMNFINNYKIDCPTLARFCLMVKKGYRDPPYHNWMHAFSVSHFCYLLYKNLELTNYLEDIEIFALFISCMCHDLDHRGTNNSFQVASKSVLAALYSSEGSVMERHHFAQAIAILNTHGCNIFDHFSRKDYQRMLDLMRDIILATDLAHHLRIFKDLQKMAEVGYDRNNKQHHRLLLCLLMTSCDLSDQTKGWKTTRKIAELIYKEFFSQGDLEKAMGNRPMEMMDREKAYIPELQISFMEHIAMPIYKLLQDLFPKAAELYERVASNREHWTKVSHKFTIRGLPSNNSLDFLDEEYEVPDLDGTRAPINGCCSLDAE

[10] = target: T3, PDE peak A (PDE5) from SW480 cells (Homo sapiens, UniProt O76074); assay: cGMP hydrolysis inhibition, PDE peak A from SW480; format: biochemical
T3 construct: endogenous in cells; host or cells: SW480 colon cancer cells, DEAE-Trisacryl M fraction

[11] = test system: peak B's from SW480, HTB-26, and LnCAP; assay: cGMP PDE activity of peak B's isolated by FPLC; format: biochemical; settings: 100 nM inhibitor
Protocol: The novel Peak B was also isolated from two other neoplastic cell lines, a breast cancer cell line, HTB-26 and a prostate cancer cell line, LnCAP by a procedure similar to the one above used to isolate it from SW480. The protocol was modified in several respects. To provide even greater reproducibility to allow comparison of different cell lines, a Pharmacia AKTA FPLC was used to control sample loading and elution on an 18 mL DEAE TrisAcryl M column. SW840 was run by this same procedure multiple times to provide a reference of peak B. 200-400 million cells of SW480 were used for the profiles. 70 million cells of LnCAP were used for a profile (see FIGS. 22 and 23), and in a separate experiment 32 million cells of HTB-26 were used for a profile (see FIGS. 20 and 21). After re-suspending cells in homogenization buffer, samples were manually homogenized. FPLC buffer A was 8 mM TRIS-acetate, 5 mM Mg acetate, 0.1 mM EDTA, pH 7.5 and buffer B was 8 mM TRIS-acetate, 5 mM Mg acetate, 0.1 mM EDTA, 1 M Na acetate, pH 7.5. Supernatants were loaded onto the column at 1 mL per minute, followed by a wash with 60 mL buffer A at 1 mL per minute. A gradient was run from 0-15% buffer B in 60 mL, 15-50% buffer B in 60 mL, and 50-100% buffer B in 16 mL. During the gradient 1.5 mL fractions were collected.

[12] = test system: SW-480 colon adenocarcinoma cells; assay: Apoptosis fold induction protocol (DNA fragmentation ELISA); settings: cell line not given
[13] = target: novel cGMP-specific PDE peak B from SW480 cells (Homo sapiens); assay: cGMP hydrolysis inhibition, novel PDE peak B (Section IA) from SW480; format: biochemical; settings: Section IA Peak B, cGMP hydrolysis, 0.25 μM 3H-cGMP
Sequence of novel cGMP-specific PDE peak B from SW480 cells (Homo sapiens) (O00408 2-941): as above

[14] = target: T4, classic PDE2 (Peak B) from SW480 (Homo sapiens, UniProt O00408); assay: Inhibition of classic PDE2 Peak B isolated with ethylene glycol buffers; format: biochemical
T4 construct: endogenous in cells; host or cells: SW480 cells, non-FPLC DEAE column with 30% ethylene glycol buffers
T4 sequence (O00408 whole entry): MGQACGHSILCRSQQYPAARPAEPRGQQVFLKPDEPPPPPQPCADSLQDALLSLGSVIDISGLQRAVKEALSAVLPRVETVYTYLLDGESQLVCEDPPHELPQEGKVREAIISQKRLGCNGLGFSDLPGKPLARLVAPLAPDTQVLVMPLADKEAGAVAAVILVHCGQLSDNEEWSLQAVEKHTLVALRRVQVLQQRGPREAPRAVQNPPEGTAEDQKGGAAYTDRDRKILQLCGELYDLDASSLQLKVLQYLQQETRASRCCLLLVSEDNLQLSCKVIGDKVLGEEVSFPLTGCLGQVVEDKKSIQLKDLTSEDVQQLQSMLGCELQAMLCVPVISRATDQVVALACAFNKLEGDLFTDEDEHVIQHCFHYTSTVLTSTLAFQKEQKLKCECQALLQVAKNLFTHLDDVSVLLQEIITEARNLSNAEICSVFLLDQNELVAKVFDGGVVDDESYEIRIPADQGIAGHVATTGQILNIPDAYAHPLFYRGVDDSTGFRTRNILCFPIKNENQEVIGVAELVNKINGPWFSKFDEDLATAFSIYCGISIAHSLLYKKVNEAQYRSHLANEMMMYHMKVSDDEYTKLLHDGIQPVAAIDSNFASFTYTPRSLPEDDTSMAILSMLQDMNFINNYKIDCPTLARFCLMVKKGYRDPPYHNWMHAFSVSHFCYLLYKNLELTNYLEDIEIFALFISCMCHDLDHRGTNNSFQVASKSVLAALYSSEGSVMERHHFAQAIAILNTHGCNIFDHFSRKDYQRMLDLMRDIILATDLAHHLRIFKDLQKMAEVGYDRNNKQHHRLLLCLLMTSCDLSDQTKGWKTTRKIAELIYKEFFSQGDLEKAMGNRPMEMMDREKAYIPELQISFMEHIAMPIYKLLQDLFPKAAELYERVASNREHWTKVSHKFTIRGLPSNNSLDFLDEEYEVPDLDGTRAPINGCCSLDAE
Protocol: A second method used to isolate classic PDE2 from SW480 was done using a non-FPLC DEAE column procedure described above (see Section IA) with the modification that the buffers contained 30% ethylene glycol, 10 mM TLCK and 3.6 mM β-mercaptoethanol. The addition of these reagents to the buffers causes a shift in the elution profile (see FIG. 25) from low to high sodium acetate so that peak A moves from 40 to 150 mM, peak B from 75 to 280 mM and peak C from 200 to 500 mM Na acetate (see FIG. 25).

SMILES | COX Inhibition [4] | IC50 [8] [µM] | inhibition at 100 µM [4] [%] | IC50 [5] [µM] | Growth-inhibitory activity, % Inhibition at 100 μM [3] [%] | cGMP PDE inhibitory activity, % Inhibition at 10 μM [5] [%] | PDE Inhibition [5] | competition with cGMP in binding of GST-cGB-PDE5 [7] | COX-I inhibition (FIG. 5) [4] | also measured
CCN(CC)CCSC12CC(=O)OC1(C)/C(=C/c1ccc(S(C)(=O)=O)cc1)c1ccc(F)cc12 (racemic) [A, rac-threo-(E)-1-(N,N′-diethylaminoethanethio)-1-(butan-1′,4′-olido)-[3′,4′: 1,2]-6-fluoro-2-methyl-3-(p-methylsulfonylbenzylidene)-indan] | − |  |  |  | 68 | <25 | − |  |  | Mammary Gland Organ Culture [1]: ++; Apoptosis-inducing activity, Fold induction at 100 μM [2]: <2.0 fold; Growth Inhibition ([3]; qualitative activity profile): +++; Cyclooxygenase inhibitory activity, % Inhibition at 100 μM ([4]; 100 μM): <25%; Apoptosis ([6]; qualitative activity profile): ++
O=C(O)C1CCN(c2nc(NCc3ccc4c(c3)OCO4)c3cc(Cl)ccc3n2)CC1 [Compound E4021] |  |  |  |  | <50 |  |  | do not bind to the cGMP binding sites of PDE5 |  | IC50 ([3]; HT-29 treated for 6 days, SRB assay, read-out: Growth inhibition (IC50)): > 100 µM; sensitivity of peak B's cGMP PDE activity [11]: resistant
CCCCCC[C@@H]([C@@H](C)O)n1cnc2c(N)ncnc21 (racemic) [EHNA] |  |  |  |  |  |  |  |  |  | Apoptosis-inducing activity, Fold induction at 100 μM ([12]; 100 μM): <2.0 fold; IC50 [13]: 3.7 µM; IC50 ([14]; 2.0 μM cAMP substrate, read-out: IC50, cAMP PDE activity in Peak B): 3.8 µM; IC50 ([14]; read-out: IC50, cAMP PDE activity in Peak B with rolipram, 2.0 μM cAMP substrate, addition of 10 μM rolipram): 2.5 µM; IC50 ([14]; read-out: IC50, cGMP PDE activity in Peak B, 2 μM cGMP substrate): 1.6 µM; IC50 ([10]; cGMP hydrolysis, 0.25 μM 3H-cGMP): > 100 µM

More lines, main results first:

COX Inhibition [4] | IC50 [8] [µM] | inhibition at 100 µM [4] [%] | IC50 [5] [µM] | SMILES | Growth-inhibitory activity, % Inhibition at 100 μM [3] [%] | cGMP PDE inhibitory activity, % Inhibition at 10 μM [5] [%] | PDE Inhibition [5] | competition with cGMP in binding of GST-cGB-PDE5 [7] | COX-I inhibition (FIG. 5) [4] | also measured
− | > 25 | < 25 | 0.08 | COc1cc(/C=C2/C(C)=C(CC(=O)NCc3ccccc3)c3cc(F)ccc32)cc(OC)c1OC [Compound E, (Z)-5-Fluoro-2-methyl-1-(3,4,5-trimethoxybenzylidene)-3-indenylacetamide, N-benzyl] |  | 75 | ++++ | do not bind to the cGMP binding sites of PDE5 | neither test compound B and E significantly inhibit COX-I | IC50 (PC-3): 0.9 µM; IC50 (Colo 205): 1.62 µM; competitive (with cGMP) binding to PDE peak B [9]: competitively (with cGMP) binds; Ratio (IC50 Peak A/Peak B) [10]: 1.0; competitive (with cGMP) binding to PDE 5 (peak A) [10]: does competitively (with cGMP) bind
− | 58 | < 25 | 18 | COc1cc(C=C2C(C)=C(CC(=O)O)c3cc(F)ccc32)cc(OC)c1OC [Compound B, (Z)-5-Fluoro-2-methyl-1-(3,4,5-trimethoxybenzylidene)-3-acetic acid] |  | <25 | +++ | do not bind to the cGMP binding sites of PDE5 | neither test compound B and E significantly inhibit COX-I | fold induction at 100 µM ([12]; Homo sapiens, SW480, read-out: Apoptosis-inducing activity, Fold induction at 100 μM, 100 μM): > 2; EC50 ([6]; Homo sapiens, HT-29, 48 hours): ~175 µM

— patent US20030109418A1, “Methods for identifying compounds for inhibition of neoplastic lesions, and pharmaceutical compositions containing such compounds” (priority 1999, published 2003)
